# According to patent US20090233943A9, “NEW COMPOUNDS 835” (priority 2007, published 2009):
# Biological target: T1, human β-Secretase (soluble part, AA 1-AA 460, sBACE-Fc) (Homo sapiens, UniProt P56817)
# T1 construct: The soluble part of the human β-Secretase (AA 1-AA 460) was cloned; made in house
# Assay: TR-FRET assay (β-secretase enzyme)
# Format: biochemical
# Description: The enzyme used in the IGEN Cleavage-, Fluorescent-, TR-FRET- and BiaCore assays is described as follows:
# The soluble part of the human β-Secretase (AA 1-AA 460) was cloned into the ASP2-Fc10-1-IRES-GFP-neoK mammalian expression vector. The gene was fused to the Fc domain of IgG1 (affinity tag) and stably cloned into SEEK 293 cells. Purified sBACE-Fc is stored in Tris buffer, pH 9.2 and has a purity of 95%.
# Enzyme was diluted to 6 μg/mL and the substrate (Europium)[…](Qsy7) to 200 nM in reaction buffer (NaAcetate, chaps, triton x-100, EDTA pH 4.5). Compounds were diluted to the desired concentration in dimethyl sulfoxide (final dimethyl sulfoxide concentration in assay is 5%). […] Enzyme (9 μL) and 1 μL of compound in dimethyl sulfoxide was added to the plate, mixed and pre-incubated for 10 min. Substrate (10 μL) was added and the reaction proceeded in the dark for 15 min at RT. The reaction was stopped with the addition of 7 μL NaAcetate, pH 9. The fluorescence of the product was measured on a Victor II plate reader with an excitation wavelength of 340 nm and an emission wavelength of 615 nm. […] The dimethyl sulfoxide control defined the 100% activity level and 0% activity was defined by exclusion of the enzyme (using reaction buffer instead).
# T1 sequence (P56817 22-460): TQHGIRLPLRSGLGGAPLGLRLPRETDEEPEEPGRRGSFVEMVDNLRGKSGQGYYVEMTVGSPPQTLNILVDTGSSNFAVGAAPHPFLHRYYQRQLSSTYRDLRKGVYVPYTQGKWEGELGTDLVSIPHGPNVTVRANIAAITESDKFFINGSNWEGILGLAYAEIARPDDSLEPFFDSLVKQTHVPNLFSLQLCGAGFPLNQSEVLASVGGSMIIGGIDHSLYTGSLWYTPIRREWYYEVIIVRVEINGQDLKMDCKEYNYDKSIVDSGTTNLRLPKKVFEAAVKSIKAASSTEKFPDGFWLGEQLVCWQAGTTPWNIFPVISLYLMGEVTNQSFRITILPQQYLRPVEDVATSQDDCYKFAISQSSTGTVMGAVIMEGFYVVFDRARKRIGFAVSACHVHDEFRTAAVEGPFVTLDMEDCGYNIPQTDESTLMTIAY
row,SMILES,IC50
1,"CN1C(=O)C(c2cccc(S(F)(F)(F)(F)F)c2)(c2ccc(F)c(-c3cccnc3)c2)N=C1N (centres unmarked) [Example 50, 2-Amino-5-(4-fluoro-3-pyridin-3-ylphenyl)-3-methyl-5-[3-(pentafluoro-λ^6-sulfanyl)phenyl]-3,5-dihydro-4H-imidazol-4-one]",317 nM
2,"COc1ccc(F)c(-c2cccc(C3(c4ccc(S(F)(F)(F)(F)F)cc4)N=C(N)N(C)C3=O)c2)c1 (centres unmarked) [Example 38, 2-amino-5-(2′-fluoro-5′-methoxybiphenyl-3-yl)-3-methyl-5-[4-(pentafluoro-λ^6 sulfanyl)phenyl]-3,5-dihydro-4H-imidazol-4-one]",71 nM
3,"CN1C(=O)C(c2ccc(S(F)(F)(F)(F)F)cc2)(c2cccc(-c3cscn3)c2)N=C1N (centres unmarked) [Example 43, 2-amino-3-methyl-5-[4-(pentafluoro-λ^6-sulfanyl)phenyl]-5-[3-(1,3-thiazol-4-yl)phenyl]-3,5-dihydro-4H-imidazol-4-one]",673 nM
4,"COc1ccc(F)c(-c2cccc(C3(c4ccc(S(F)(F)(F)(F)F)cc4)N=C(N)N(C)C3=O)c2)c1F (centres unmarked) [Example 47, 2-amino-5-(2′,6′-difluoro-3′-methoxybiphenyl-3-yl)-3-methyl-5-[4-(pentafluoro-λ^6-sulfanyl)phenyl]-3,5-dihydro-4H-imidazol-4-one]",38 nM
5,"COc1cncc(-c2cc(C3(c4ccc(S(F)(F)(F)(F)F)cc4)N=C(N)N(C)C3=O)ccc2F)c1 (single isomer, unassigned) [26 isomer 2]",465 nM
